We go through one compound from PMC3154929, “Phosphatase-Coupled Universal Kinase Assay and Kinetics for First-Order-Rate Coupling Reaction” (PLoS ONE, 2011).

The test addresses T1, human glucokinase (GCK) (Homo sapiens, UniProt P35557).
T1 construct: V16 to Q465, N-terminal 6xHis tag, expressed in E. coli
T1 sequence (P35557 16-465): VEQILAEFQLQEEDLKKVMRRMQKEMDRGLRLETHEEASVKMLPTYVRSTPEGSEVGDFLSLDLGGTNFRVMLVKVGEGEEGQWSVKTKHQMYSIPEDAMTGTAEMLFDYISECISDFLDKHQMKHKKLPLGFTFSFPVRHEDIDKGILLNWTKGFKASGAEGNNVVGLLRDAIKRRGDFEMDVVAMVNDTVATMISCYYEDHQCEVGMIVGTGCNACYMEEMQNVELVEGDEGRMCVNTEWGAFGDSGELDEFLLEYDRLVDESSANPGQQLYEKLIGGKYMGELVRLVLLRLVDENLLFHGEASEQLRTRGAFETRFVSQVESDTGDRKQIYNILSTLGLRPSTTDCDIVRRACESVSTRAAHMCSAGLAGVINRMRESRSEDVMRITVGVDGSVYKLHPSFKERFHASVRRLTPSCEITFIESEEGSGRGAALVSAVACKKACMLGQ
Kind of test: CD39L2-coupled malachite green phosphate assay, OD620. In kind it is biochemical. To be noted: 0.12 mM ATP, 10 mM MgCl2, 10 mM CaCl2, 150 mM NaCl, 25 mM Tris pH 7.5, room temperature.

Broadly, the Km is the concentration of substrate that gives half-maximal velocity. As for `OC[C@H]1OC(O)[C@H](O)[C@@H](O)[C@@H]1O` (stereo partly shown) [glucose], the Km was determined as 7.23 ± 1.44 mM.
